{"source": "patent US9265787B2", "about": "“Combined inhibition of the vitamin D receptor and DNA replication in the treatment of cancer” (Institute for Cancer Research, priority 2011, dated 2016)", "format_in_all_cases": "cell-based", "key": {"[1]": {"system": "BXPC3 cells", "assay": "CellTiter-Glo viability assay with VDR short hairpin RNA and gemcitabine"}, "[2]": {"system": "Panc1 cells", "assay": "CellTiter-Glo viability assay with VDR short hairpin RNA and gemcitabine"}, "[3]": {"system": "BXPC3shVDR cells", "assay": "Drug survival of BXPC3 cells stably depleted of VDR (rescue experiments)"}, "[4]": {"system": "Panc1:gfpH2B cells", "assay": "Time-lapse videomicroscopy of cell fates with siRNAs/drugs and gemcitabine", "description": "FIGS. 5A-5C show time lapse videomicroscopy tracking the fates of Panc1:gfpH2B cells treated with various combinations of siRNAs and drugs.\nWhite arrows show mitotic cells in Chk1 depleted cells. Other rounded cells are apoptotic.\nThe fate of Panc1:gfpH2B cells treated with various combinations of siRNA and gemcitabine was tracked with time-lapse videomicroscopy (FIG. 5A). […] Cells were transfected with indicated siRNAs, and synchronized at the G1/S boundary. Time-lapse was started upon release from the G1/S block and continued for the next 48 hours. Select frames from the movies (0, 12, 24 and 48 hours) are shown.\nA comparison of cells treated with gemcitabine in the presence and absence of UCN01, an inhibitor of the Chk1 DNA damage response kinase was carried out (FIG. 5A).\nThe percentage of cell death was quantified (FIG. 5C).\nThe mechanism of chemosensitization by inhibiting VDR was investigated, and it was determined that this mechanism is different from overriding the DNA damage checkpoint pathway through Chk1 inhibition (FIG. 6A). […] Chk1 was depleted by using siRNAs targeted to the Chk1 transcript from the Dharmacon smartPOOL siRNA library. The siRNAs included the sequence […] (SEQ ID NO:8), […] (SEQ ID NO:9), […] (SEQ ID NO:10), and […] (SEQ ID NO:11).\nLoss of VDR promotes apoptosis of gemcitabine-treated cells through a different pathway than that which is used after Chk1 inhibition. […]"}, "[5]": {"system": "BXPC3 cells stably expressing gfpH2B", "assay": "Time-lapse microscopy of BXPC3 cells stably expressing gfpH2B (preliminary experiments)", "conditions": "S phase by FACS", "description": "VDR is known to induce transcription of the Cdk inhibitor, p21, and this is one of the reasons used to explain the anti-proliferative activity of vitamin D. As p21 is also activated by DNA damage, it is possible that VDR contributes to the cell cycle checkpoint arrest induced by gemcitabine. This will be directly tested by time-lapse microscopy of synchronized cells after depletion of VDR and treatment with gemcitabine."}, "[6]": {"system": "Panc1 cells", "assay": "Effect of the sublethal screening dose of gemcitabine (phospho-H2AX foci, cell cycle arrest)", "conditions": "sublethal dose (IC20)"}, "[7]": {"system": "Panc1 cells", "assay": "Clonogenic survival after siRNA transfection and 18 h gemcitabine", "conditions": "VDR siRNA-transfected Panc 1 cells, gemcitabine 18 hours, colonies after eight days", "procedure": "(§1) Clonogenic survival of BXPC3 cells transfected with indicated siRNAs and treated with drug or vehicle. Plk1 siRNA is positive control for killing. […] Panc 1 cells transfected with VDR siRNA are also included.\n(§2) Cells were transfected with siRNA, treated with gemcitabine for 18 hours, then seeded. Surviving colonies were quantitated eight days later."}, "[8]": {"system": "BXPC3 cells", "assay": "Clonogenic survival after siRNA transfection and 18 h gemcitabine", "conditions": "VDR siRNA-transfected BXPC3 cells, gemcitabine 18 hours, colonies after eight days", "procedure": "as §1, §2"}, "[9]": {"system": "Panc1 cells", "assay": "Immunofluorescence staining for DNA damage response proteins", "conditions": "gemcitabine-treated compared to vehicle treated cells", "quoted_text": "Immunofluorescence staining for DNA damage response proteins, TAO1, 53BP1, and γ-H2AX of gemcitabine treated Panc1 cells transfected with control or VDR siRNA."}, "[10]": {"system": "BXPC3 cells", "assay": "Clonogenic assay with VDR antagonist TEI-9647 and gemcitabine", "procedure": "Note sensitization at 2 μM of TEI-9647. The average of 3 independent experiments is shown.\n(§3) TEI-9647 alone killed cells, consistent with reduced clonogenic survival by VDR siRNA alone. Clonogenic assays were performed using several different doses of the inhibitor compound to compare clonogenic survival to assays described above using VDR siRNAs and shRNAs. The clonogenic assays were performed as described above. The TEI-9647 compound was added prior to gemcitabine addition, consistent with the timing of the siRNA treatments described above. Cells were treated with inhibitor for 48 hours followed by gemcitabine treatment for 48 hours and allowed to form colonies for 10-12 days. Survival was then quantified by staining and destaining of subsequent colonies with crystal violet and reading the resultant destain at wavelength 595 nm."}, "[11]": {"system": "Panc1 cells", "assay": "Clonogenic assay with VDR antagonist TEI-9647 and gemcitabine", "conditions": "data not shown", "procedure": "as §3"}}, "data": [{"compound": "VDR shRNA: VDR short hairpin RNA (clone ID TRCN000019504), sequence CGAAGUGUUUGGCAAUGAGAU (SEQ ID NO: 7) (listed as Homo sapiens)", "values": [{"measurement": "sensitization to killing by gemcitabine (viability)", "setting": "[1]", "value": "sensitized both cell lines to killing by gemcitabine"}, {"measurement": "sensitization to killing by gemcitabine (viability)", "setting": "[2]", "value": "sensitized both cell lines to killing by gemcitabine"}]}, {"compound": "CC(=O)O[C@H]1C(=O)[C@@]2(C)[C@H]([C@H](OC(=O)c3ccccc3)[C@]3(O)C[C@H](OC(=O)[C@H](O)[C@@H](NC(=O)c4ccccc4)c4ccccc4)C(C)=C1C3(C)C)[C@]1(OC(C)=O)CO[C@@H]1C[C@@H]2O", "note": "[taxol]", "values": [{"measurement": "effect of VDR status on killing by taxol", "setting": "[3]; two concentrations of taxol, BXPC3 parental, shVDR and rescued cells", "value": "did not affect killing"}]}, {"compound": "CN[C@@H]1C[C@H]2O[C@@](C)([C@@H]1OC)n1c3ccccc3c3c4c(c5c6ccccc6n2c5c31)C(=O)N[C@@H]4O", "note": "[UCN01]", "values": [{"measurement": "fate of gemcitabine-treated cells (mitotic entry, phase of death)", "setting": "[4]; 48 hour time-lapse after release from G1/S block", "value": "promoted cells to first enter mitosis (arrows) which then caused cell death"}, {"measurement": "cell number at 48 hour versus 0 hour", "setting": "[4]; gemcitabine-treated cells with UCN01, phase contrast images", "value": "reduced cell number"}]}, {"compound": "Nc1ccn([C@@H]2O[C@H](CO)[C@@H](O)C2(F)F)c(=O)n1", "note": "[gemcitabine, Gemcitabine]", "values": [{"measurement": "survival of BXPC3shVDR cells carrying the C288G VDR mutant", "setting": "[3]; 50 nM, compared to the same cells rescued by wild type VDR", "value": "killed"}, {"measurement": "duration of arrest in interphase after gemcitabine treatment", "setting": "[5]", "value": "up to 48 hours"}, {"measurement": "DNA damage and cell cycle arrest at the screening dose", "setting": "[6]", "value": "sufficient to induce DNA damage"}, {"measurement": "further reduction of survival by gemcitabine", "setting": "[7]", "value": "> 85", "unit": "%"}, {"measurement": "further reduction of survival by gemcitabine", "setting": "[8]", "value": "> 85", "unit": "%"}, {"measurement": "phospho-H2AX and 53BP1 staining in nuclei", "setting": "[9]", "value": "increased"}]}, {"compound": "C=C1C[C@H](C[C@@H](C)[C@H]2CC[C@H]3/C(=C/C=C4/C[C@@H](O)C[C@H](O)C4=C)CCC[C@]23C)OC1=O", "note": "[TEI-9647]", "values": [{"measurement": "sensitization to gemcitabine (clonogenic survival)", "setting": "[10]; TEI-9647 added prior to gemcitabine", "value": "sensitize both BXPC3 and Panc1 cells to gemcitabine"}, {"measurement": "TEI-9647 concentration at which sensitization is noted", "setting": "[10]; with gemcitabine, average of 3 independent experiments", "value": 2, "unit": "µM"}, {"measurement": "effect of TEI-9647 alone on clonogenic survival", "setting": "[10]; without gemcitabine", "value": "killed cells"}, {"measurement": "sensitization to gemcitabine (clonogenic survival)", "setting": "[11]", "value": "sensitize both BXPC3 and Panc1 cells to gemcitabine"}]}]}
